This passage reports TGI and GI50 results from PubChem BioAssay (NCI).

Where “and” joins values, the source holds several entries; their conditions need not be identical. Equal entries are not always repeated.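 96-well plates; 48 h exposure; 5 concentrations. Endpoints by linear interpolation between flanking doses. Not reached: highest tested concentration assigned. The concentration for 50% growth inhibition is given as GI50. TGI: total growth inhibition.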 Some results are limits rather than exact numbers.

Some test systems named below: MALME-3M melanoma; OVCAR-8 ovarian; OVCAR-4 ovarian; UACC-62 melanoma; MDA-MB-231 breast; SN12C renal; NCI-H23 lung; BT-549 breast; NCI-H226 lung; HCC-2998 colon.
Common to all, as to assay: NCI tumour cell line growth inhibition, 48 h

In the case of `NCCNCC(O)CO` (configuration not stated), the TGI in the assay on MALME-3M melanoma, in the assay with OVCAR-8 ovarian, in the assay with OVCAR-4 ovarian, in the assay on UACC-62 melanoma, in the assay with MDA-MB-231 breast and in the assay with SN12C renal was greater than 100 µM in each case. The TGI in the assay on NCI-H23 lung, with BT-549 breast and with NCI-H226 lung was greater than 100 µM throughout.
`COc1cc(-c2oc3c(OC)c(OC)cc(O)c3c(=O)c2OC)ccc1O`: the TGI in the assay with MALME-3M melanoma is greater than 100 µM; with OVCAR-8 ovarian it was greater than 50 µM; with OVCAR-4 ovarian it was greater than 100 µM; in the assay on UACC-62 melanoma it was greater than 100 µM; with MDA-MB-231 breast it was greater than 50 µM; in the assay on SN12C renal, greater than 100 µM. The TGI was greater than 100 µM with NCI-H23 lung; greater than 100 µM in the assay with HCC-2998 colon; 35.7 µM with BT-549 breast; 9.68 µM and > 50 µM in the assay with NCI-H226 lung. For the same compound, the GI50 with OVCAR-4 ovarian is > 100 µM and 11.4 µM; in the assay on SN12C renal, 3.73 µM and 12.4 µM; with NCI-H23 lung it was 7.38 µM and 35.1 µM; with HCC-2998 colon, > 100 µM and 31 µM; with NCI-H226 lung it was 3.88 µM and 12.4 µM.
For `COC(=O)c1ccc(=O)c2nc3/c(=C/O)c(O)cc(=O)c3[nH]c12`, the GI50 is 3.16 µM with MALME-3M melanoma; 0.364 µM in the assay on OVCAR-8 ovarian; 3.58 µM with OVCAR-4 ovarian; 1.01 µM in the assay with UACC-62 melanoma; 3.57 µM in the assay with MDA-MB-231 breast; 0.44 µM in the assay on SN12C renal. Also, the GI50 in the assay with NCI-H23 lung is 0.514 µM; in the assay with HCC-2998 colon it was 2.94 µM; with BT-549 breast, 0.347 µM; in the assay with NCI-H226 lung, 0.726 µM. The TGI was 11.1 µM and 18.6 µM in the assay with MALME-3M melanoma; 2.95 µM and 24.9 µM in the assay with OVCAR-8 ovarian; 31.4 µM and 29.8 µM in the assay with OVCAR-4 ovarian; 7.26 µM and 7.01 µM with UACC-62 melanoma; 19.3 µM and 19.2 µM in the assay on MDA-MB-231 breast; 20 µM and 12.8 µM in the assay on SN12C renal. Further, the TGI in the assay with NCI-H23 lung was 9.33 µM and 16.7 µM; in the assay with HCC-2998 colon, 25 µM and 18.9 µM; with BT-549 breast, 6.14 µM and 12.1 µM; in the assay on NCI-H226 lung, 12.2 µM and 12.8 µM.
Regarding `Nc1ccc(C#Cc2cncnc2Nc2ccc(OCc3cccc(F)c3)c(Cl)c2)cc1`, the GI50 was greater than 25 µM in the assay on MALME-3M melanoma; 11.9 µM with OVCAR-8 ovarian; 12.3 µM in the assay on OVCAR-4 ovarian; 19.4 µM in the assay with UACC-62 melanoma; 8.08 µM in the assay on MDA-MB-231 breast; greater than 15.6 µM in the assay with SN12C renal. In addition, the GI50 is greater than 20.5 µM in the assay with NCI-H23 lung, 11.1 µM in the assay on HCC-2998 colon, greater than 21 µM in the assay with BT-549 breast and 10.6 µM in the assay on NCI-H226 lung. Further, the TGI in the assay with MALME-3M melanoma, with OVCAR-8 ovarian, with OVCAR-4 ovarian, with UACC-62 melanoma, with MDA-MB-231 breast and in the assay with SN12C renal was greater than 25 µM each time. Moreover, the TGI in the assay with NCI-H23 lung, in the assay on HCC-2998 colon, with BT-549 breast and in the assay with NCI-H226 lung was greater than 25 µM throughout.
Consider `COc1ccc2cc(C(=O)/C=C/c3cccc(Cl)c3Cl)ccc2c1`, for which the GI50 was greater than 100 µM with MALME-3M melanoma; 14.9 µM with OVCAR-8 ovarian; 44.6 µM with OVCAR-4 ovarian; 4.08 µM with UACC-62 melanoma; 12.2 µM in the assay with MDA-MB-231 breast; 5.67 µM with SN12C renal. The GI50 is 6.42 µM in the assay on NCI-H23 lung and 12.5 µM in the assay with BT-549 breast. For the same compound, the TGI in the assay on MALME-3M melanoma was greater than 100 µM; in the assay with OVCAR-8 ovarian, greater than 100 µM; in the assay on OVCAR-4 ovarian, greater than 100 µM; in the assay with UACC-62 melanoma it was 28.4 µM; in the assay on MDA-MB-231 breast it was 39.6 µM; in the assay on SN12C renal it was 32.3 µM. In addition, the TGI in the assay with NCI-H23 lung came to 29.4 µM; in the assay with BT-549 breast, 48.9 µM.
Regarding `NC(=O)c1[nH]nc(C2OC(CO)C(O)C2O)c1O` (configuration not stated), the TGI in the assay with MALME-3M melanoma amounted to 2660 µM; with OVCAR-8 ovarian, 212 µM; in the assay with OVCAR-4 ovarian, 520 µM; with UACC-62 melanoma, 579 µM; with MDA-MB-231 breast it was 670 µM; with SN12C renal, 819 µM. For the same compound, the TGI amounted to 386 µM in the assay with NCI-H23 lung, 378 µM in the assay with HCC-2998 colon, 1160 µM in the assay with BT-549 breast and 2220 µM in the assay with NCI-H226 lung.
Turning to `COC(=O)[C@]12CC[C@@H](C)[C@H](C)[C@@H]1C1=CC[C@@H]3[C@@]4(C)C(C=O)=C[C@@](C)(COC(C)=O)[C@@H]4[C@H](O)C[C@@]3(C)[C@]1(C)CC2`, the GI50 with MALME-3M melanoma is 1.76 µM; in the assay on OVCAR-8 ovarian, 3.03 µM; in the assay with OVCAR-4 ovarian, 2.64 µM; in the assay with UACC-62 melanoma, 1.76 µM; with MDA-MB-231 breast, 2.27 µM; in the assay with SN12C renal it was 2.3 µM. Further, the GI50 was 2.76 µM in the assay on NCI-H23 lung, 1.83 µM in the assay with HCC-2998 colon, 2.03 µM in the assay on BT-549 breast and 1.95 µM in the assay on NCI-H226 lung. Further, the TGI in the assay on MALME-3M melanoma was found to be 3.63 µM; in the assay with OVCAR-8 ovarian, 10.4 µM; with OVCAR-4 ovarian it was 10.7 µM; in the assay with UACC-62 melanoma, 4.1 µM; with MDA-MB-231 breast, 5.41 µM; in the assay on SN12C renal it was 6.08 µM. Besides, the TGI in the assay with NCI-H23 lung came to 7.35 µM; with HCC-2998 colon, 3.6 µM; in the assay with BT-549 breast, 5.11 µM; with NCI-H226 lung, 4.8 µM.
Regarding `O=c1cccc(C#Cc2ccccc2)o1`, the GI50 is 5.09 µM in the assay with MALME-3M melanoma; greater than 22.8 µM in the assay on OVCAR-8 ovarian; 18.4 µM in the assay with OVCAR-4 ovarian; 6.32 µM with UACC-62 melanoma; 6.05 µM in the assay with MDA-MB-231 breast; 14.5 µM in the assay with SN12C renal. For the same compound, the values for the GI50 with NCI-H23 lung, in the assay on BT-549 breast and with NCI-H226 lung were 4.42 µM, 2.57 µM and 13.2 µM, respectively. Besides, the TGI was 16.5 µM in the assay with MALME-3M melanoma; greater than 100 µM in the assay on OVCAR-8 ovarian; 44.5 µM with OVCAR-4 ovarian; 19.7 µM in the assay with UACC-62 melanoma; 25.8 µM with MDA-MB-231 breast; greater than 53.2 µM in the assay on SN12C renal. Moreover, the TGI in the assay with NCI-H23 lung is 12.2 µM; with BT-549 breast it was 12.2 µM; in the assay with NCI-H226 lung it was greater than 36.3 µM.
As for `CCCCn1c2c(c3ccccc3c1=O)C(=O)c1ccccc1-2`, the TGI with MALME-3M melanoma was greater than 100 µM; with OVCAR-8 ovarian it was greater than 100 µM; in the assay on OVCAR-4 ovarian it was 38.4 µM; with UACC-62 melanoma it was greater than 100 µM; in the assay with MDA-MB-231 breast, greater than 100 µM; in the assay with SN12C renal, greater than 100 µM. The TGI with NCI-H23 lung, in the assay on BT-549 breast and with NCI-H226 lung was greater than 100 µM in each case.
